The experiment has as its system unknown receptor expressed in COS7 cell. In words: Fluorescence-labeled TUF1 peptide binding to control (pCMV-GFP) COS7 cells. The note with it: labeled peptide 5 nM, COS7 cells transfected with pCMV-GFP. How it is done:
COS7 cells were seeded at 10,000 cells/well onto a 18 mm coverslip in a 12-well plate. Cells were allowed to settle overnight in a cell culture incubator (NuAire NU-8600, NuAire, Inc., Plymouth, Minn.) set at 37° C. and 5% CO2. Cells were transfected with pCMV-eGFP (Clontech Laboratories, Inc., Mountain View, Calif.) or pCMV-SPORT6-p75 (ATCC) using Fugene HD (Roche Diagnostics Corp., Indianapolis, Ind.) and were incubated overnight. The binding assays were carried out according to Horton et al. with modifications. Synthetic TUF1 peptides (TUF1[43-54] (SEQ ID NO:1) and TUF1[24-40] (SEQ ID NO:3) were generated (via Sigma Genosys, Sigma-Aldrich Co. St. Louis, Mo.) and were conjugated per manufacturer's recommendation with DyLight 549 NHS Ester (Thermo Fisher Scientific, Waltham, Mass.), which have similar spectra to Cy3 dye. Unconjugated dye was removed with a dye removal column (Thermo Fisher Scientific, Waltham, Mass.). Labeled peptides were diluted to 5 nM in 0.15 M Sucrose/PBS and added (1.0 ml/well) to transfected COS7 cells. The binding reaction was incubated in the dark at room temperature for 90 minutes. Cells were rinsed thoroughly with PBS+0.05% Tween-20 to remove unbound peptide. Cells were then fixed with 4% Paraformaldehyde (5 minutes). […]

No end group written: not given here.

As to AYKSYVRALPLL [TUF1[43-54]], the “binding to unknown receptor expressed in COS7 cell” value is recorded as “binds to an unknown receptor expressed in COS7 cell at a low level”.
